Reference: US9458095B2, “Oligo-benzamide compounds and their use in treating cancers” (The Board of Regents of the University of Texas System, priority 2011, dated 2016)
“Also recorded” adds a separate entry of the source.

Key:
Assay type in all cases: cell-based
WxxLF motif on AR = test: Gal4-3WxxLF and AR-Gal4 (hARGAL4/PSAenhGAL4-luc) luciferase reporter assays; settings: 100 nM peptidomimetic, 48 h, absence of androgens
Experimental: FIGS. 1A-D. Oligobenzamide control of C4-2 cell proliferation. (FIG. 1A) Chemical structure of T6. (FIG. 1B) C4-2 cells were transiently transfected with Gal4-3WxxLF promoter or (FIG. 1C) with synthetic hARGAL4 and the PSAenhGAL4-luc reporter. Cells were maintained for 48 h in the absence of androgens and with either 100 nM of peptidomimetic or volume equivalent of vehicle (DMSO) control and luciferase activity measured. (FIG. 1D) Peptidomimetics knocked down ligand independent proliferation in C4-2 cells
Ligand independent activation involves the WxxLF motif, whose tertiary structure has not been crystallographically resolved. Indeed, binding partners of AR through this WxxLF motif have not been determined. […] Based on this model, the inventors designed three peptidomimetics T6, T21 and T26 to mimic the ^435WxxLF^439 motif on AR and to target PPIs through this domain (FIG. 1A). The screening strategy involved the use of synthetic Gal4-3WxxLF (Gal4 reporter driven by 3 copies of the WxxLF motif) (FIG. 1B) and AR-Gal4 constructs (wt AR with its DNA binding domain replaced by Gal4 DNA binding domain) (from Dr. Dehm, U. Minnesota) (FIG. 1C) […]. T21, T26, or T6 (but not the control T6R) knocked down the basal ligand independent transcription from this WxxLF driven promoters. Further, these peptidomimetics abrogated ligand independent proliferation of C4-2 cells (FIG. 1D).

ARΔ1 = biological target: T1, ARΔ1 (Homo sapiens, UniProt P10275); test: ARE-luciferase reporter in PC-3 cells expressing ARΔ1; settings: 100 nM peptidomimetic, 48 h
T1 construct: expressed in transfected cells; host or cells: PC-3 cells
T1 sequence (P10275 540-920 limits assumed): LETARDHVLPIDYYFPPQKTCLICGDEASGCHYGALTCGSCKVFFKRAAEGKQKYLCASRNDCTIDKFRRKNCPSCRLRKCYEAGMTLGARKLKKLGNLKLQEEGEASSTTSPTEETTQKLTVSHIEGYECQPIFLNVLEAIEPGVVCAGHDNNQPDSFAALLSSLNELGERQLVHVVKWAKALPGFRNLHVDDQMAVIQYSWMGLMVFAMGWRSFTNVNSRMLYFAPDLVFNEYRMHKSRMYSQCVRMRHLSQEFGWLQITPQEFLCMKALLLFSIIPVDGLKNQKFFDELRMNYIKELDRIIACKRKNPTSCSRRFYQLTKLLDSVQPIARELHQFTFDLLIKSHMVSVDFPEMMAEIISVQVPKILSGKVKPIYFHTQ
Experimental: FIGS. 2A-D. Oligobenzamide control of PC3 cell proliferation. (FIG. 2A) Structure of AR deletion mutants with numbered exons (FIG. 2B) Effect of D2 and T6 on basal (AI) and AD transcription. PC-3 cells were transiently transfected with ARE-luciferase along with plasmids expressing ARwt (FIG. 2B), ARv7 (FIG. 2C) or ARΔ1 (FIG. 2D). Cells were maintained for 48 h either without (EtOH) or with (1 nM DHT) and in the presence of 100 nM of peptidomimetic or volume equivalent of vehicle (DMSO) control. Luciferase assay results are shown. Data is normalized to the basal level of expression with AR wt in PC3 cells.
Since the WxxLF motif is also present in the truncated forms of the androgen receptor, the inventors then evaluated the ability of the peptidomimetics to block ARv7-driven transcription from a minimal ARE luciferase reporter. […] These findings were confirmed with a synthetic AR with point mutations in the WxxLF motif (data not shown).

AR567 = biological target: T2, AR567 (Homo sapiens, UniProt P10275); test: ARE-luciferase reporter in PC-3 cells expressing AR567; settings: 100 nM peptidomimetic, 48 h
T2 construct: expressed in transfected cells; host or cells: PC-3 cells
T2 sequence (P10275 with tags, fused parts or gaps limits assumed): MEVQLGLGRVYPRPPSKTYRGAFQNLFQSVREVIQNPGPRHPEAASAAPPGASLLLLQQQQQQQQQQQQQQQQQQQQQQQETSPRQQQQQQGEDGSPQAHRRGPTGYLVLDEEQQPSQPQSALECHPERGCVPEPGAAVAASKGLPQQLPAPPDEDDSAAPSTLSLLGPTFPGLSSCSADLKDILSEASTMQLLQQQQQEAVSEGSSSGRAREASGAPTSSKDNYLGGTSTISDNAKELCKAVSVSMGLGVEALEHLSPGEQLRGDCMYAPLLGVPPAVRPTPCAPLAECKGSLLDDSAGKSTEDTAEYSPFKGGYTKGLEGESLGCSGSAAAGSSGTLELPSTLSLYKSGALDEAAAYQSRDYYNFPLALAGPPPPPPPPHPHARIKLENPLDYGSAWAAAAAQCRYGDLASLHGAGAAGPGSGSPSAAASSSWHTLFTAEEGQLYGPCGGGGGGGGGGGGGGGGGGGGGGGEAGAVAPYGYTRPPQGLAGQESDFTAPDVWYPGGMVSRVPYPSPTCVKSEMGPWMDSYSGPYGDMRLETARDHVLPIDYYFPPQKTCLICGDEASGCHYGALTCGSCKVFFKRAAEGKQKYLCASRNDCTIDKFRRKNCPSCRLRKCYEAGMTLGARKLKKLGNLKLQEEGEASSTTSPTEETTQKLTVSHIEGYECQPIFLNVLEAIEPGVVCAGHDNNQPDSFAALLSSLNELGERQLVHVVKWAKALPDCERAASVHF
Experimental: FIGS. 3A-B. Effect of T6 on basal transcription driven by splice variants. PC-3 cells were transiently transfected with ARE-luciferase along with plasmids expressing ARv7 (FIG. 3A) or AR567 (FIG. 3B). Cells were maintained for 48 h either without (EtOH) or with (1 nM DHT) and in the presence of 100 nM of peptidomimetic or volume equivalent of vehicle (DMSO) control. Luciferase assay results are shown. Data is normalized to the basal level of expression with AR wt in PC3 cells.

[1] = test system: ARE activity in CWR22v1 cells (ARwt and ARv7); test: ARE-luciferase reporter in CWR22v1 cells
Experimental: FIG. 4. Effect of T6 on basal level of ARE expression in CWR22v1 cells. CWR22v1 cells were transiently transfected with ARE-luciferase. Cells were maintained for 48 h without (EtOH) and in the presence of 100 nM of peptidomimetic or volume equivalent of vehicle (DMSO) control or 10 μM of casodex or MDV3100.

ARv7 regulated genes = test: Q-PCR of ARv7 regulated genes; settings: data not shown
Source text: Finally, confirmation of the role of T6 in modulating ARv7 driven transcription was obtained by evaluation of the gene expression of ARv7 regulated genes.

For `CC(C)COc1cc(C(N)=O)ccc1NC(=O)c1ccc(NC(=O)c2ccc([N+](=O)[O-])c(OCCc3ccc4ccccc4c3)c2)c(OCC(C)C)c1` [T6], the “basal ligand independent transcription from WxxLF driven promoters” value (WxxLF motif on AR) was “knocked down”, the ARΔ1-mediated transcription (ARΔ1) was “not able to block” and the “transcription driven by AR567 splice variant” value (AR567) was “decreases”. For the same molecule, the “basal transcription from minimal ARE luciferase in CWR22v1 cells (driven by ARv7)” value ([1]; 100 nM peptidomimetic, 48 h, without androgen (EtOH)) was “able to suppress; also recorded: abrogated”, the “DHT-induced transcription from minimal ARE luciferase in CWR22v1 cells” value ([1]; DHT) was “able to suppress” and the “expression of a panel of ARv7 regulated genes (Q-PCR)” value (ARv7 regulated genes) was “able to abrogate”.
